Measurements as given in patent US8440660B2 (Santen Pharmaceutical Co., Ltd., priority 2006, dated 2013).

Target: T1, Glucocorticoid Receptor (GR) (Homo sapiens, UniProt P04150)
T1 construct: purchased Invitrogen P2816
T1 sequence (P04150 1-777): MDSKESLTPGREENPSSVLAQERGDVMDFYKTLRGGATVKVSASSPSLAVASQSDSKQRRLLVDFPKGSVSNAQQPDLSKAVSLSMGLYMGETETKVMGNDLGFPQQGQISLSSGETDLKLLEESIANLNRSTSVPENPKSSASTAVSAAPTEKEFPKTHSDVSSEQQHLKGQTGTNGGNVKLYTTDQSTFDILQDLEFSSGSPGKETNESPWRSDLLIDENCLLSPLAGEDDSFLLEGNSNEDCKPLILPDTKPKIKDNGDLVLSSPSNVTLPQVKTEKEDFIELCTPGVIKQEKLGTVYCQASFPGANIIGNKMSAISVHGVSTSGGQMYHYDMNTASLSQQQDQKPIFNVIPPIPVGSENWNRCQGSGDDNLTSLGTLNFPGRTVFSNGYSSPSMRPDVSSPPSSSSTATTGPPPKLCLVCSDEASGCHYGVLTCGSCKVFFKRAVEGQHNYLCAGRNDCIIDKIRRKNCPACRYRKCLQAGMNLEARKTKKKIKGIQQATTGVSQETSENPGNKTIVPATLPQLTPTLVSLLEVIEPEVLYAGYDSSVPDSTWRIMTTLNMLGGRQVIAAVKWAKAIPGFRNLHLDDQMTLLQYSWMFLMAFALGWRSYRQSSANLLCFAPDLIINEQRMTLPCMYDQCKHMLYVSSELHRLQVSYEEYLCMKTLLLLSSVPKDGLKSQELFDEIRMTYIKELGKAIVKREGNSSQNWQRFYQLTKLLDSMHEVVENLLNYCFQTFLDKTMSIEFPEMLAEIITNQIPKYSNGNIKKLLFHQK
Assay: GR receptor competitor assay by fluorescence polarization (Invitrogen GR competitor assay kit, cat No. P2816)
Conditions: 20 μM test compound solution, 10 μL per well plus 5 μL 4×GS1 and 5 μL 4×GR solution; recombinant human GR; 2 to 4 hours at room temperature; a ratio of 100% or more is indicated by 100%; read-out: GR Binding ratio (%)
Procedure, shortened: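 Recombinant human GR with fluorescent ligand Fluormone GS1 in pH 7.4 phosphate buffer with molybdate, EDTA, DTT, stabilizing peptide and 2% DMSO; compound added as 20 μM solution (pre-mix). FP read after 2–4 h at room temperature in the dark. Binding ratio (%) normalized between buffer and dexamethasone controls.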

Structure (SMILES)	inhibition at 10 µM [%]
COc1ccc([N+](=O)[O-])cc1OCc1c(-c2ccc(OC(=O)c3cccnc3C)cc2OC)ccc2c1C(C)=CC(C)(C)N2 [Compound 1-101, 6-[2-Methoxy-4-(2-methylpyridin-3-ylcarbonyloxy)phenyl]-5-(2-methoxy-5-nitrophenoxymethyl)-2,2,4-trimethyl-1,2-dihydroquinoline]	99
COc1cc(OC(=O)c2ccccc2SC)ccc1-c1ccc2c(c1COc1cc(F)ccc1C)C(C)=CC(C)(C)N2 [Compound 1-52]	96
COc1cc(OC(=O)c2ccc([N+](=O)[O-])o2)ccc1-c1ccc2c(c1COc1cc(F)ccc1C)C(C)=CC(C)(C)N2 [Compound 1-86, 5-(5-Fluoro-2-methylphenoxymethyl)-6-[2-methoxy-4-(5-nitrofuran-2-ylcarbonyloxy)phenyl]-2,2,4-trimethyl-1,2-dihydroquinoline]	91
COc1cc(OC(=O)Nc2ccccc2Cl)ccc1-c1ccc2c(c1COc1cc(F)ccc1C)C(C)=CC(C)(C)N2 [Compound 6-3, 6-[4-(2-Chlorophenylaminocarbonyloxy)-2-methoxyphenyl]-5-(5-fluoro-2-methylphenoxymethyl)-2,2,4-trimethyl-1,2-dihydroquinoline]	98
COc1ccc(OC(=O)c2ccccn2)cc1-c1ccc2c(c1COc1cc(F)ccc1C)C(C)=CC(C)(C)N2 [Compound 1-44, 5-(5-Fluoro-2-methylphenoxymethyl)-6-[2-methoxy-5-(pyridin-2-ylcarbonyloxy)phenyl]-2,2,4-trimethyl-1,2-dihydroquinoline]	100

Continued, values first:

inhibition at 10 µM [%]	Structure (SMILES)
100	COc1cc(OC(=O)c2ccccc2Cl)ccc1-c1ccc2c(c1COc1cc(F)ccc1C)C(C)=CC(C)(C)N2 [Compound 1-11, 6-[4-(2-Chlorobenzoyloxy)-2-methoxyphenyl]-5-(5-fluoro-2-methylphenoxymethyl)-2,2,4-trimethyl-1,2-dihydroquinoline]
95	COc1cc(OC(=O)c2ccnc(Cl)c2)ccc1-c1ccc2c(c1COc1cc(F)ccc1C)C(C)=CC(C)(C)N2 [Compound 1-90, 6-[4-(2-Chloropyridin-4-ylcarbonyloxy)-2-methoxyphenyl]-5-(5-fluoro-2-methylphenoxymethyl)-2,2,4-trimethyl-1,2-dihydroquinoline]
100	COc1cc(OC(=O)c2cncs2)ccc1-c1ccc2c(c1COc1cc(F)ccc1C)C(C)=CC(C)(C)N2 [Compound 1-55, 5-(5-Fluoro-2-methylphenoxymethyl)-6-[2-methoxy-4-(thiazol-5-ylcarbonyloxy)phenyl]-2,2,4-trimethyl-1,2-dihydroquinoline]
100	COc1cc(OC(=O)c2cocn2)ccc1-c1ccc2c(c1COc1cc(F)ccc1C)C(C)=CC(C)(C)N2 [Compound 1-56, 5-(5-Fluoro-2-methylphenoxymethyl)-6-[2-methoxy-4-(oxazol-4-ylcarbonyloxy)phenyl]-2,2,4-trimethyl-1,2-dihydroquinoline]
